# Results: ChEMBL document CHEMBL4507283, “Data for DCP probe BI-1935” (2021)
# pKi: −log10 of the molar value. Calls of active or inactive are those of the source. No cut-off for these calls is given here.
# How the values were obtained:
# [1] = biological target: Sigma non-opioid intracellular receptor 1 (Homo sapiens, UniProt Q99720); assay: GPCRScan assay: inhibition of Sigma 1; parameters: radioligand conc. used [nm] 4.0 – 5.0, parental cells HEKT
# [2] = biological target: T1, Bifunctional epoxide hydrolase 2 (Homo sapiens, UniProt P34913); assay: Cellular assay
# T1 sequence (P34913 whole entry): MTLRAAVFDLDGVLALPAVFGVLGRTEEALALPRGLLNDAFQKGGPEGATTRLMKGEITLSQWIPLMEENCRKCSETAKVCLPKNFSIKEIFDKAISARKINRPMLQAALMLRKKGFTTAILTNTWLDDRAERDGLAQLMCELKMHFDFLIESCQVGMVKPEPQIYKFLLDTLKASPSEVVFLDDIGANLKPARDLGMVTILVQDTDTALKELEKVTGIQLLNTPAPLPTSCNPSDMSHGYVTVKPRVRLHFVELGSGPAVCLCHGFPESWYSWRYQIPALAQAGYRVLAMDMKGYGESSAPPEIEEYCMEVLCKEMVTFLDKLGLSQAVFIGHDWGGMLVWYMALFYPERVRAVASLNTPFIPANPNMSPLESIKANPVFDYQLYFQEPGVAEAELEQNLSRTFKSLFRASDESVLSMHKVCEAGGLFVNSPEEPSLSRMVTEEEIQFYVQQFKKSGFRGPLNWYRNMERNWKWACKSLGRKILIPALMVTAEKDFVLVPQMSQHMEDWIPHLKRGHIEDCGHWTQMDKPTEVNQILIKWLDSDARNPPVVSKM
# [3] = biological target: Serotonin 1 (5-HT1) receptor (Rattus norvegicus) (UniProt P28564+P30940+P19327+P28565); assay: 5HT1/R Eurofins-Panlabs selectivity data (BI); format: protein assay; conditions: Compound concentration 10.0 uM
# [4] = biological target: Adrenergic receptor alpha-1 (Rattus norvegicus) (UniProt P15823+P23944+P43140); assay: ALPHA1/R Eurofins-Panlabs selectivity data (BI); format: protein assay; conditions: Compound concentration 10.0 uM
# [5] = biological target: D(2) dopamine receptor (Homo sapiens) (UniProt P14416); assay: D2L/H Eurofins-Panlabs selectivity data (BI); conditions: Compound concentration 10.0 uM
# [6] = biological target: Neutrophil elastase (Homo sapiens) (UniProt P08246); assay: ELASTASEPMN Eurofins-Panlabs selectivity data (BI); conditions: Compound concentration 10.0 uM
# [7] = biological target: Histamine H1 receptor (Homo sapiens) (UniProt P35367); assay: H1/H Eurofins-Panlabs selectivity data (BI); conditions: Compound concentration 10.0 uM
# [8] = biological target: Leukotriene A-4 hydrolase (Cavia porcellus) (UniProt P19602); assay: LTA4HYD Eurofins-Panlabs selectivity data (BI); conditions: Compound concentration 10.0 uM
# [9] = biological target: Bone morphogenetic protein receptor type-1B (Homo sapiens) (UniProt O00238); conditions: Compound concentration 1000.0 nM
# [10] = biological target: Calcium/calmodulin-dependent protein kinase type 1 (Homo sapiens) (UniProt Q14012); conditions: Compound concentration 1000.0 nM
# [11] = biological target: Serine/threonine-protein kinase Chk1 (Homo sapiens) (UniProt O14757); conditions: Compound concentration 1000.0 nM
# [12] = biological target: Tyrosine-protein kinase CSK (Homo sapiens) (UniProt P41240); conditions: Compound concentration 1000.0 nM
# [13] = biological target: Casein kinase I isoform gamma-2 (Homo sapiens) (UniProt P78368); conditions: Compound concentration 1000.0 nM
# [14] = biological target: Death-associated protein kinase 2 (Homo sapiens) (UniProt Q9UIK4); conditions: Compound concentration 1000.0 nM
# [15] = system: Epidermal growth factor receptor (Homo sapiens), P00533 [L858R]; conditions: Compound concentration 1000.0 nM
# [16] = system: Epidermal growth factor receptor (Homo sapiens), P00533 [L858R,T790M]; conditions: Compound concentration 1000.0 nM
# [17] = biological target: Mitogen-activated protein kinase 15 (Homo sapiens) (UniProt Q8TD08); conditions: Compound concentration 1000.0 nM
# [18] = biological target: Tyrosine-protein kinase FRK (Homo sapiens) (UniProt P42685); conditions: Compound concentration 1000.0 nM
# [19] = biological target: Inhibitor of nuclear factor kappa-B kinase subunit beta (Homo sapiens) (UniProt O14920); conditions: Compound concentration 1000.0 nM
# [20] = biological target: Interleukin-1 receptor-associated kinase 3 (Homo sapiens) (UniProt Q9Y616); conditions: Compound concentration 1000.0 nM
# [21] = system: Leucine-rich repeat serine/threonine-protein kinase 2 (Homo sapiens), Q5S007 [G2019S]; conditions: Compound concentration 1000.0 nM
# [22] = biological target: Mitogen-activated protein kinase kinase kinase 13 (Homo sapiens) (UniProt O43283); conditions: Compound concentration 1000.0 nM
# [23] = biological target: Dual specificity mitogen-activated protein kinase kinase 7 (Homo sapiens) (UniProt O14733); conditions: Compound concentration 1000.0 nM
# [24] = biological target: Serine/threonine-protein kinase MRCK alpha (Homo sapiens) (UniProt Q5VT25); conditions: Compound concentration 1000.0 nM
# [25] = biological target: Macrophage-stimulating protein receptor (Homo sapiens) (UniProt Q04912); conditions: Compound concentration 1000.0 nM
# [26] = biological target: Serine/threonine-protein kinase 24 (Homo sapiens) (UniProt Q9Y6E0); conditions: Compound concentration 1000.0 nM
# [27] = biological target: Mitogen-activated protein kinase 14 (Homo sapiens) (UniProt Q16539); conditions: Compound concentration 1000.0 nM
# [28] = biological target: Cyclin-dependent kinase 2 homolog (Plasmodium falciparum (isolate 3D7)) (UniProt P61075); conditions: Compound concentration 1000.0 nM
# [29] = biological target: Cyclin-dependent kinase 15 (Homo sapiens) (UniProt Q96Q40); conditions: Compound concentration 1000.0 nM
# [30] = system: Phosphatidylinositol 4,5-bisphosphate 3-kinase catalytic subunit alpha isoform (Homo sapiens), P42336 [H1047Y]; conditions: Compound concentration 1000.0 nM
# [31] = biological target: cAMP-dependent protein kinase catalytic subunit alpha (Homo sapiens) (UniProt P17612); conditions: Compound concentration 1000.0 nM
# [32] = biological target: Serine/threonine-protein kinase N2 (Homo sapiens) (UniProt Q16513); conditions: Compound concentration 1000.0 nM
# [33] = biological target: Serine/threonine-protein kinase PLK2 (Homo sapiens) (UniProt Q9NYY3); conditions: Compound concentration 1000.0 nM
# [34] = biological target: cGMP-dependent protein kinase 2 (Homo sapiens) (UniProt Q13237); conditions: Compound concentration 1000.0 nM
# [35] = biological target: Proto-oncogene tyrosine-protein kinase Src (Homo sapiens) (UniProt P12931); conditions: Compound concentration 1000.0 nM
# [36] = biological target: Mitogen-activated protein kinase kinase kinase 19 (Homo sapiens) (UniProt Q56UN5); conditions: Compound concentration 1000.0 nM
# [37] = biological target: D(1A) dopamine receptor (Homo sapiens) (UniProt P21728); conditions: Compound concentration 10.0 uM
# [38] = biological target: Muscarinic acetylcholine receptor M3 (Homo sapiens) (UniProt P20309); conditions: Compound concentration 10.0 uM
# Chain of cGMP-dependent protein kinase 2 (Homo sapiens) (Q13237 whole entry): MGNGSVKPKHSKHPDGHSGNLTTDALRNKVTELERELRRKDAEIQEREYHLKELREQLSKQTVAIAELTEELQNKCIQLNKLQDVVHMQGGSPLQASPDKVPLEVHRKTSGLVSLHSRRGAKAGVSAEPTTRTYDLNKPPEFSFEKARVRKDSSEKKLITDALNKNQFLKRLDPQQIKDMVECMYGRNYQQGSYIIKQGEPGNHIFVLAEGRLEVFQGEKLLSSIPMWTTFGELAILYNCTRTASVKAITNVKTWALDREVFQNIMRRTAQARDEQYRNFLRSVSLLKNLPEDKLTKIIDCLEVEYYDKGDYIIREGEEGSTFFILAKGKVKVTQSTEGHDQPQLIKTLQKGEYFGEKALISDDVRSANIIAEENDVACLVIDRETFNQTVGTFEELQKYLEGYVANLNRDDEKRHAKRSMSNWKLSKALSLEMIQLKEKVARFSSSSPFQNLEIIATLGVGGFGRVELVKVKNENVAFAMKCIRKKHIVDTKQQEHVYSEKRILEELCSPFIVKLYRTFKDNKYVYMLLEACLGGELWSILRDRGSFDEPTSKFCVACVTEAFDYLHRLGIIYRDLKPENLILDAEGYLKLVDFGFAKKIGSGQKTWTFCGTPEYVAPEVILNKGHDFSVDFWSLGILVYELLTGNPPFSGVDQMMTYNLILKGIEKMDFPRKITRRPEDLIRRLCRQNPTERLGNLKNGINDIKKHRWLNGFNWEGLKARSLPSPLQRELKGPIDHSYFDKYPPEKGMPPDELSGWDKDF
# Chain of Mitogen-activated protein kinase kinase kinase 19 (Homo sapiens) (Q56UN5 whole entry): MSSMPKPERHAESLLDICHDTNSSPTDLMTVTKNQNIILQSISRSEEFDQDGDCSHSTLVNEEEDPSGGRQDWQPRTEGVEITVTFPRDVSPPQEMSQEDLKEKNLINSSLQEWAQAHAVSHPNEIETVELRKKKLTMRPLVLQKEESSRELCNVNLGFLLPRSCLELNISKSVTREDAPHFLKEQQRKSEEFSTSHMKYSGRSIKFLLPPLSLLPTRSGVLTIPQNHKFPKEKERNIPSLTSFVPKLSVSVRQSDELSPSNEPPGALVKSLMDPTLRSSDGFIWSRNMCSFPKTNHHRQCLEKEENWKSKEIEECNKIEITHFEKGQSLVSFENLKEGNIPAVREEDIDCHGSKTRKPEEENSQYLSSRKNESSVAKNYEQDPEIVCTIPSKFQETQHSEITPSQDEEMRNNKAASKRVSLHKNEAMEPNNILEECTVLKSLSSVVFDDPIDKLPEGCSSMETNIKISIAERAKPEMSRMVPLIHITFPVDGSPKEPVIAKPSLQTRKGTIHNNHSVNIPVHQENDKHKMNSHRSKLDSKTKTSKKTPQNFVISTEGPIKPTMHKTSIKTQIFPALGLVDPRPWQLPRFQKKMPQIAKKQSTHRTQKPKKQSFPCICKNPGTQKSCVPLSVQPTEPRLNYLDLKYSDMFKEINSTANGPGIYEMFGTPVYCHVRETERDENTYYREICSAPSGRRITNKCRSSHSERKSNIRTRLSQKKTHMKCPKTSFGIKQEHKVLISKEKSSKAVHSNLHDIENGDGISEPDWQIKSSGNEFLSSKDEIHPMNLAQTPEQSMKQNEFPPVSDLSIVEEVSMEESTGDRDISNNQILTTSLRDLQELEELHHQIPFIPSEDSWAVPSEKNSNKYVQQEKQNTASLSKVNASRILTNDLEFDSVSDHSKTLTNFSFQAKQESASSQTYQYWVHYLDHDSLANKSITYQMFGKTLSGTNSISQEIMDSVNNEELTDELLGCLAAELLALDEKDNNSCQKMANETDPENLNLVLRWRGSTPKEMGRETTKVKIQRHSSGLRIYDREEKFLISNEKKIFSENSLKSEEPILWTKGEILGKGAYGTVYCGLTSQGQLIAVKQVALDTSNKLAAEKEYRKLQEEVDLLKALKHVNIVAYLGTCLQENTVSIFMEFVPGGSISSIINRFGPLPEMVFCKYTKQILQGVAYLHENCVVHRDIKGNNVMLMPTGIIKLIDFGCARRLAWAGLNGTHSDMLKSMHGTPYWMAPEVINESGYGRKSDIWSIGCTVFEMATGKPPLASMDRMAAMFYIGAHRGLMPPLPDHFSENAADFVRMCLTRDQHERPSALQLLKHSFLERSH
# Chain of Death-associated protein kinase 2 (Homo sapiens) (Q9UIK4 whole entry, looked up): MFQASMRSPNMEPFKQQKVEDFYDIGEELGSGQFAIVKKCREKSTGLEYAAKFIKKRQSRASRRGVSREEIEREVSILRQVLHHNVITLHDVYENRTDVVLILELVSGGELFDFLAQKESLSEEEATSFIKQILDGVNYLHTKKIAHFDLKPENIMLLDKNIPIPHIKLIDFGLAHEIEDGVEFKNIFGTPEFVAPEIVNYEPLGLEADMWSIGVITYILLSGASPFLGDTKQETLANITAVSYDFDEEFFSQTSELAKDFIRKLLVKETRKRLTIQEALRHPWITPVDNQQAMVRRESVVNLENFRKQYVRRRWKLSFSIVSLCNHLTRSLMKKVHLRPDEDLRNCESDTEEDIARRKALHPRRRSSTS
# Chain of Histamine H1 receptor (Homo sapiens) (P35367 whole entry): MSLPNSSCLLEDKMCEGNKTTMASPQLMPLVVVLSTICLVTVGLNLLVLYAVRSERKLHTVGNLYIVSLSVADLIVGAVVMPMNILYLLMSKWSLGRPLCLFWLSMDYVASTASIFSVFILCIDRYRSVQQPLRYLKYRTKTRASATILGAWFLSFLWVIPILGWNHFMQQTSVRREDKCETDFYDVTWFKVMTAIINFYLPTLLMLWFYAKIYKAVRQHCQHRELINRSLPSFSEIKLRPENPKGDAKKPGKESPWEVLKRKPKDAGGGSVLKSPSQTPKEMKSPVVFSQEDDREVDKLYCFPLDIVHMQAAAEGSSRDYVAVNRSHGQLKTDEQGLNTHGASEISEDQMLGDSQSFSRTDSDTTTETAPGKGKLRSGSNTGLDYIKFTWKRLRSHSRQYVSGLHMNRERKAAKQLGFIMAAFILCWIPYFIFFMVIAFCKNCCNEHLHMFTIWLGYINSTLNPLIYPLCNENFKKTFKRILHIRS
# Chain of Tyrosine-protein kinase FRK (Homo sapiens) (P42685 whole entry): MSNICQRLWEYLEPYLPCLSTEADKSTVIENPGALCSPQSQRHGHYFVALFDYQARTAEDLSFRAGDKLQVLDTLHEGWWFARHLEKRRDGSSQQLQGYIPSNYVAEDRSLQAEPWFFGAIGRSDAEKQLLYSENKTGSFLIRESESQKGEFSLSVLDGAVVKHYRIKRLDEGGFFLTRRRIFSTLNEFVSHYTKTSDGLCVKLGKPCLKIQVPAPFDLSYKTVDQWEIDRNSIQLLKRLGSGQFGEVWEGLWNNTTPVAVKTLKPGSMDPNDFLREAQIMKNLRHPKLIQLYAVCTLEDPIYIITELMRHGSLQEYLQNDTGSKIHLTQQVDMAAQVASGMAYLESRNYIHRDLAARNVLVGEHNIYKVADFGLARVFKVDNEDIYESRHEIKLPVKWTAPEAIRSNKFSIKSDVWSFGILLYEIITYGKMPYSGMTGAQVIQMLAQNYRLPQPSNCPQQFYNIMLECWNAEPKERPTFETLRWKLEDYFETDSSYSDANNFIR
# Chain of Macrophage-stimulating protein receptor (Homo sapiens) (Q04912 25-304 limits assumed): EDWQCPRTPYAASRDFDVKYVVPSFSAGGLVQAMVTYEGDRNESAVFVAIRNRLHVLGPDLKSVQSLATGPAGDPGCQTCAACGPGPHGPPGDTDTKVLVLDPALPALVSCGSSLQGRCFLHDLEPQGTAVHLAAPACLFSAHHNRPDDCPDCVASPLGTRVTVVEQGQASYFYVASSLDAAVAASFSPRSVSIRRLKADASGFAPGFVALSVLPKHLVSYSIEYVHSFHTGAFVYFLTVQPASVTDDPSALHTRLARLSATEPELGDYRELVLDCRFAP
# Chain of Macrophage-stimulating protein receptor (Homo sapiens) (Q04912 310-1400 limits assumed): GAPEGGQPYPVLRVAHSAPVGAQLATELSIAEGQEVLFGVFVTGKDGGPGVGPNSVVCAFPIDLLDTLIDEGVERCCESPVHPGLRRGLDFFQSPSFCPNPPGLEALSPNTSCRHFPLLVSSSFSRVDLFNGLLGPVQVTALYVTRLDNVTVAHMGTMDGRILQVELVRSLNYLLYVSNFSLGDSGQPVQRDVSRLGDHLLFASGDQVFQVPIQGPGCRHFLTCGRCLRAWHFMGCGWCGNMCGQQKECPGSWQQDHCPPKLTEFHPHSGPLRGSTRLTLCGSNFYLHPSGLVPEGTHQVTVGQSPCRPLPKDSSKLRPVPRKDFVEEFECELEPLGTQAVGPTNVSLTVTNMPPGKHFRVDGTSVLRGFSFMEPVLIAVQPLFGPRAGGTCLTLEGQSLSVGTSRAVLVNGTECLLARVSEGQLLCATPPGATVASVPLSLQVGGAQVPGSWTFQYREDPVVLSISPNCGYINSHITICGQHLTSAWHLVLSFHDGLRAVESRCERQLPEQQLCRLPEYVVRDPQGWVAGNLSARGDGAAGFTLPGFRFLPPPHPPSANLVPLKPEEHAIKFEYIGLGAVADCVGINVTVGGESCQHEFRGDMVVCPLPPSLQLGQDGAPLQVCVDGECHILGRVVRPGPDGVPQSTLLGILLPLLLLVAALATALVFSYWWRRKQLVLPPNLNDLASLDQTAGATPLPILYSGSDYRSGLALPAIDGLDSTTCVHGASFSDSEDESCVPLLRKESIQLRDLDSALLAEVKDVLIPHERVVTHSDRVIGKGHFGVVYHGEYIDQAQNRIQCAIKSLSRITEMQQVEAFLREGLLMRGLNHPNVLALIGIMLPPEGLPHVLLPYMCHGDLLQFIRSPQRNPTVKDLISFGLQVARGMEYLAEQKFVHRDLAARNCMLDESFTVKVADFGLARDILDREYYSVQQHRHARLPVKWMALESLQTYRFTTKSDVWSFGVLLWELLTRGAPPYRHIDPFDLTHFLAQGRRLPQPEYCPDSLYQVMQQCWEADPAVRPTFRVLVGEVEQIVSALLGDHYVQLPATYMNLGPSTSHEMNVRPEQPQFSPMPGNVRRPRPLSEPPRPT
# Chain of Sigma non-opioid intracellular receptor 1 (Q99720 whole entry): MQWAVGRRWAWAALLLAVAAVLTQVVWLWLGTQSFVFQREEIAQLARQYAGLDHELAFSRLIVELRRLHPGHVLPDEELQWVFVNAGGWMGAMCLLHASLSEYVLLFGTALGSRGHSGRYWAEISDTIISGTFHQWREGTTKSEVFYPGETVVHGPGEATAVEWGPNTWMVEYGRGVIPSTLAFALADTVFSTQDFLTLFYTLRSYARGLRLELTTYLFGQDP
smiles,measurement,setting,value
CCOCCn1cc(C(=O)Nc2ccc(-n3nc(-c4cccnc4)cc3C(F)(F)F)cn2)ccc1=O [BI 1935],pKi,[1],5.20
same,IC50,[2],< 0.001 µM (active)
same,residual activity,[3],117%
same,residual activity,[4],94%
same,residual activity,[5],97%
same,residual activity,[6],100%
same,residual activity,[7],98%
same,residual activity,[8],111%
same,residual activity,[9],71%
same,residual activity,[10],100%
same,residual activity,[11],76%
same,residual activity,[12],100%
same,residual activity,[13],100%
same,residual activity,[14],93%
same,residual activity,[15],90%
same,residual activity,[16],96%
same,residual activity,[17],100%
same,residual activity,[18],100%
same,residual activity,[19],100%
same,residual activity,[20],100%
same,residual activity,[21],100%
same,residual activity,[22],100%
same,residual activity,[23],85%
same,residual activity,[24],100%
same,residual activity,[25],100%
same,residual activity,[26],100%
same,residual activity,[27],100%
same,residual activity,[28],86%
same,residual activity,[29],100%
same,residual activity,[30],100%
same,residual activity,[31],92%
same,residual activity,[32],100%
same,residual activity,[33],88%
same,residual activity,[34],100%
same,residual activity,[35],90%
same,residual activity,[36],75%
same,inhibition,[37],-7.31%
same,inhibition,[38],10.2%
